Reference: PubChem BioAssay (NCI)
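In this assay, cells in 96-well plates receive the compound at five concentrations for 48 hours. Endpoints are linearly interpolated between the surrounding concentrations. Here, GI50 denotes the concentration required for 50% inhibition of growth. TGI: concentration producing complete growth inhibition.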

Columns and labels:
Assay in all cases: NCI tumour cell line growth inhibition, 48 h
OVCAR-8 ovarian = tested on: OVCAR-8 ovarian
ACHN renal = tested on: ACHN renal
HOP-62 NSCLC = tested on: HOP-62 NSCLC
HS 578T breast = tested on: HS 578T breast
SK-MEL-28 melanoma = tested on: SK-MEL-28 melanoma
EKVX NSCLC = tested on: EKVX NSCLC
SK-MEL-2 melanoma = tested on: SK-MEL-2 melanoma
SN12C renal = tested on: SN12C renal
SF-539 CNS = tested on: SF-539 CNS
SNB-75 CNS = tested on: SNB-75 CNS

Row | SMILES | GI50 (OVCAR-8 ovarian) [µM] | TGI (OVCAR-8 ovarian) [µM] | GI50 (ACHN renal) [µM] | TGI (ACHN renal) [µM] | GI50 (HOP-62 NSCLC) [µM] | TGI (HOP-62 NSCLC) [µM] | GI50 (HS 578T breast) [µM] | TGI (HS 578T breast) [µM] | GI50 (SK-MEL-28 melanoma) [µM] | TGI (SK-MEL-28 melanoma) [µM] | GI50 (EKVX NSCLC) [µM] | TGI (EKVX NSCLC) [µM] | GI50 (SK-MEL-2 melanoma) [µM] | TGI (SK-MEL-2 melanoma) [µM] | GI50 (SN12C renal) [µM] | TGI (SN12C renal) [µM] | GI50 (SF-539 CNS) [µM] | TGI (SF-539 CNS) [µM] | GI50 (SNB-75 CNS) [µM] | TGI (SNB-75 CNS) [µM]
1 | COC(=O)C1=C(O)C(C(=O)OC)[C@@]2(O)[C@@H](C(=O)OC)C(c3ccc(OC(=O)C(CC(C)C)NC(C)=O)cc3)C[C@@H]1[C@@H]2C(=O)OC (some centres undefined) | 43.7 | > 100 | 41.9 | > 100 | 31.2 | > 100 | 58.3 | > 100 | > 100 | > 100 | 39.7 | > 100 | 81.9 | > 100 | 30.2 | > 100 | – | – | – | –
2 | CCOC(=O)C1=C(c2ccccc2)N(Cc2ccccc2)C2(O)C=CC(=O)C3C(=O)N(c4ccccc4)C(=O)C132 (centres undefined) | 3.09 | 17.5 | 1.9 | 4.23 | 2.67 | 6.56 | 3.46 | 18.3 | 1.73 | 3.85 | 2.43 | 6.51 | – | – | 1.55 | 4.9 | 1.91 | 3.76 | 2.1 | 4.62
3 | CC1(C)CC2(C)OC2C2(C1)N=NC(=Nc1ccccc1)O2 (centres undefined) | 2.9 | > 100 | 2 | 6.12 | 8.76 | 30.4 | 17.3 | 71.7 | 11.9 | 27.4 | – | – | 10.5 | 24.3 | 2.48 | 8.33 | 7.94 | 20.9 | 16.4 | 30.4
4 | Cc1ccc(OCCCCCCNCCO)c(C)c1 | 17.8 | 35.9 | 13.8 | 27.8 | 15 | 30.8 | 14.3 | 35.5 | 15.4 | 29.9 | – | – | 19.8 | 37.6 | 12.7 | 26.9 | 14.7 | 28.6 | 6.47 | 20.1
5 | C#Cc1ccc(-n2c(/C=C/c3cc(OC)c(OC)c(OC)c3)nc3ncccc3c2=O)cc1 | 9.67 | > 100 | 6.63 | > 100 | 13.3 | > 100 | 3.67 | 23 | 34.6 | > 100 | – | – | 4.54 | 22.1 | 20.5 | > 100 | 4.57 | 37.7 | 3.88 | > 100
6 | O=c1[nH]c(-c2ccccn2)nc2sc3c(c12)CCCCCC3 | 4.33 | > 100 | 5.19 | > 100 | 6.24 | > 100 | 6.45 | > 100 | 6.01 | > 100 | – | – | > 100 | > 100 | 6.29 | > 100 | 7.84 | > 100 | 85.1 | > 100
7 | O=c1[nH]c2cc(O)ccc2n2cc3c(F)cccc3c12 | 3.85 | > 100 | 2.04 | > 100 | 0.847 | > 100 | 3.85 | > 100 | – | – | 4.69 | > 100 | > 21.2 | > 100 | 2.57 | > 100 | 1.3 | > 100 | 1.76 | > 100
